Experimental data from PMC8632988, “Inhibition of SYK and cSrc kinases can protect bone and cartilage in preclinical models of osteoarthritis and rheumatoid arthritis” (Scientific Reports, 2021).
Like-named read-outs stand apart in the source and are kept apart here.

Experiments:
Assay in all cases: Kinase selectivity profile assay
Type in all cases: biochemical
P38b/MAPK11 = target: T1, P38b/MAPK11 (Homo sapiens, UniProt Q15759); details: 500 nM; relative to DMSO; read-out: Residual enzymatic activity
T1 construct: purchased Reaction Biology Corporation
Procedure, shortened: (§1)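 Radiometric kinase assay run by a standard protocol. Unbound phosphate was removed by washing filters in phosphoric acid, and product radioactivity gave percent remaining kinase activity versus DMSO vehicle reactions. Run in duplicate.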

SRPK2 = target: T2, SRPK2 (Homo sapiens, UniProt P78362); details: 500 nM; relative to DMSO; read-out: Residual enzymatic activity
T2 construct: purchased Reaction Biology Corporation
Procedure, shortened: as §1

NEK9 = target: T3, NEK9 (Homo sapiens, UniProt Q8TD19); details: 500 nM; relative to DMSO; read-out: Residual enzymatic activity
T3 construct: purchased Reaction Biology Corporation
Procedure, shortened: as §1

MLK1/MAP3K9 = target: T4, MLK1/MAP3K9 (Homo sapiens, UniProt P80192); details: for remaining activity at 0.5 µM: 500 nM, relative to DMSO, read-out: Residual enzymatic activity
T4 construct: purchased Reaction Biology Corporation (assay service)
Procedure, shortened: as §1

MRCKa/CDC42BPA = target: T5, MRCKa/CDC42BPA (Homo sapiens, UniProt Q5VT25); details: read-out: Residual enzymatic activity
T5 construct: purchased Reaction Biology Corporation
Procedure, shortened: as §1

ALK4/ACVR1B = target: T6, ALK4/ACVR1B (Homo sapiens, UniProt P36896); details: 500 nM; relative to DMSO; read-out: Residual enzymatic activity
T6 construct: purchased Reaction Biology Corporation
Procedure, shortened: as §1

CK2a = target: T7, CK2a (Homo sapiens, UniProt P68400); details: 500 nM; relative to DMSO; read-out: Residual enzymatic activity
T7 construct: purchased Reaction Biology Corporation
Procedure, shortened: as §1

DLK/MAP3K12 = target: T8, DLK/MAP3K12 (Homo sapiens, UniProt Q12852); details: 500 nM; relative to DMSO; read-out: Residual enzymatic activity
T8 construct: purchased Reaction Biology Corporation
Procedure, shortened: as §1

EPHA6 = target: T9, EPHA6 (Homo sapiens, UniProt Q9UF33); details: 500 nM, relative to DMSO; for remaining activity at 0.5 µM: read-out: Residual enzymatic activity
T9 construct: purchased Reaction Biology Corporation
T9 sequence (Q9UF33 23-1036): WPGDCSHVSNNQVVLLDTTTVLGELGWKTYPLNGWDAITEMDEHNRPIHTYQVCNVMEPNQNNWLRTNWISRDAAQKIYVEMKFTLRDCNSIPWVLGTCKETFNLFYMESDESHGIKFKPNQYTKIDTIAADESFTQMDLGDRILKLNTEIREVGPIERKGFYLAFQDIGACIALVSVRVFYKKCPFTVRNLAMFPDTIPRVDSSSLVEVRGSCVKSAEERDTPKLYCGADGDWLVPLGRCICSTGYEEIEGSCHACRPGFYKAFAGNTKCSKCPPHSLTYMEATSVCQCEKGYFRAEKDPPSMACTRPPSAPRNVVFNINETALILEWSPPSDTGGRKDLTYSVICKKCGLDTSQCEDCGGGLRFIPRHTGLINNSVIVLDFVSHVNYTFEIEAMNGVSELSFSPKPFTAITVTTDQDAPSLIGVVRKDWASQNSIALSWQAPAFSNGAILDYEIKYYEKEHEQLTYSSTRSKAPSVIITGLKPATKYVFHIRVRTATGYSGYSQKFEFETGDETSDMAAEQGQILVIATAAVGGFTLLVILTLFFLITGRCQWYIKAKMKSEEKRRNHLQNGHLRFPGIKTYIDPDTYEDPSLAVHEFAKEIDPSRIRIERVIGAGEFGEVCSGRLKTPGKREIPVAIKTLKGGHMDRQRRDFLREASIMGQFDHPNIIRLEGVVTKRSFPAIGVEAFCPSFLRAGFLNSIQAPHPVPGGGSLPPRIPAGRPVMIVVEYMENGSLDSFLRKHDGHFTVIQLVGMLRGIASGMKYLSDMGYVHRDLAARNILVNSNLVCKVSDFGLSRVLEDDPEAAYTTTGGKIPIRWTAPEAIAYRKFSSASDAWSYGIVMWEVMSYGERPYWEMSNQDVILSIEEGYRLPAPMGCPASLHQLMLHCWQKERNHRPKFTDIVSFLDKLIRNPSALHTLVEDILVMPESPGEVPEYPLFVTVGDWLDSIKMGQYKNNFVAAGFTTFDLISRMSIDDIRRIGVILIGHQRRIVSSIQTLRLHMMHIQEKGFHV
Procedure, shortened: as §1

PKCeta = target: T10, PKCeta (Homo sapiens, UniProt P24723); details: 500 nM; relative to DMSO; read-out: Residual enzymatic activity
T10 construct: purchased Reaction Biology Corporation
Procedure, shortened: as §1

IRAK1 = target: T11, IRAK1 (Homo sapiens, UniProt P51617); details: 500 nM; relative to DMSO; read-out: Residual enzymatic activity
T11 construct: purchased Reaction Biology Corporation
Procedure, shortened: as §1

JAK1 = target: T12, JAK1 (Homo sapiens, UniProt P23458); details: 500 nM; relative to DMSO; read-out: Residual enzymatic activity
T12 construct: purchased Reaction Biology Corporation
Procedure, shortened: as §1

GRK5 = target: T13, GRK5 (Homo sapiens, UniProt P34947); details: 500 nM; relative to DMSO; read-out: Residual enzymatic activity
T13 construct: purchased Reaction Biology Corporation
Procedure, shortened: as §1

DCAMKL1 = target: T14, DCAMKL1 (Homo sapiens, UniProt O15075); details: 500 nM; relative to DMSO; read-out: Residual enzymatic activity
T14 construct: purchased Reaction Biology Corporation
Procedure, shortened: as §1

LOK/STK10 = target: T15, LOK/STK10 (Homo sapiens, UniProt O94804); details: 500 nM; relative to DMSO; read-out: Residual enzymatic activity
T15 construct: purchased Reaction Biology Corporation
Procedure, shortened: as §1

STK38/NDR1 = target: T16, STK38/NDR1 (Homo sapiens, UniProt Q15208); details: 500 nM; relative to DMSO; read-out: Residual enzymatic activity
T16 construct: purchased Reaction Biology Corporation
Procedure, shortened: as §1

RSK3 = target: T17, RSK3 (Homo sapiens, UniProt Q15349); details: 500 nM; relative to DMSO; read-out: Residual enzymatic activity
T17 construct: purchased Reaction Biology Corporation
Procedure, shortened: as §1

PIM1 = target: T18, PIM1 (Homo sapiens, UniProt P11309); details: 500 nM; relative to DMSO; read-out: Residual enzymatic activity
T18 construct: purchased Reaction Biology Corporation
Procedure, shortened: as §1

GRK4 = target: T19, GRK4 (Homo sapiens, UniProt P32298); details: 500 nM; relative to DMSO; read-out: Residual enzymatic activity
T19 construct: purchased Reaction Biology Corporation
Procedure, shortened: as §1

P38a/MAPK14 = target: T20, P38a/MAPK14 (Homo sapiens, UniProt Q16539); details: 500 nM; relative to DMSO; read-out: Residual enzymatic activity
T20 construct: purchased Reaction Biology Corporation
Procedure, shortened: as §1

AKT1 = target: T21, AKT1 (Homo sapiens, UniProt P31749); details: 500 nM; relative to DMSO; read-out: Residual enzymatic activity
T21 construct: purchased Reaction Biology Corporation
Procedure, shortened: as §1

CTK/MATK = target: T22, CTK/MATK (Homo sapiens, UniProt P42679); details: 500 nM; relative to DMSO; read-out: Residual enzymatic activity
T22 construct: purchased Reaction Biology Corporation
Procedure, shortened: as §1

HCK = target: T23, HCK (Homo sapiens, UniProt P08631); details: for remaining activity at 0.5 µM: 500 nM, relative to DMSO, read-out: Residual enzymatic activity
T23 construct: purchased Reaction Biology Corporation (assay service)
Procedure, shortened: as §1

PKCzeta = target: T24, PKCzeta (Homo sapiens, UniProt Q05513); details: read-out: Residual enzymatic activity
T24 construct: purchased Reaction Biology Corporation
Procedure, shortened: as §1

TTBK1 = target: T25, TTBK1 (Homo sapiens, UniProt Q5TCY1); details: 500 nM; relative to DMSO; read-out: Residual enzymatic activity
T25 construct: purchased Reaction Biology Corporation
Procedure, shortened: as §1

[1] = 10-dose mode, threefold serial dilution from 10 μM

T4 sequence (P80192 whole entry): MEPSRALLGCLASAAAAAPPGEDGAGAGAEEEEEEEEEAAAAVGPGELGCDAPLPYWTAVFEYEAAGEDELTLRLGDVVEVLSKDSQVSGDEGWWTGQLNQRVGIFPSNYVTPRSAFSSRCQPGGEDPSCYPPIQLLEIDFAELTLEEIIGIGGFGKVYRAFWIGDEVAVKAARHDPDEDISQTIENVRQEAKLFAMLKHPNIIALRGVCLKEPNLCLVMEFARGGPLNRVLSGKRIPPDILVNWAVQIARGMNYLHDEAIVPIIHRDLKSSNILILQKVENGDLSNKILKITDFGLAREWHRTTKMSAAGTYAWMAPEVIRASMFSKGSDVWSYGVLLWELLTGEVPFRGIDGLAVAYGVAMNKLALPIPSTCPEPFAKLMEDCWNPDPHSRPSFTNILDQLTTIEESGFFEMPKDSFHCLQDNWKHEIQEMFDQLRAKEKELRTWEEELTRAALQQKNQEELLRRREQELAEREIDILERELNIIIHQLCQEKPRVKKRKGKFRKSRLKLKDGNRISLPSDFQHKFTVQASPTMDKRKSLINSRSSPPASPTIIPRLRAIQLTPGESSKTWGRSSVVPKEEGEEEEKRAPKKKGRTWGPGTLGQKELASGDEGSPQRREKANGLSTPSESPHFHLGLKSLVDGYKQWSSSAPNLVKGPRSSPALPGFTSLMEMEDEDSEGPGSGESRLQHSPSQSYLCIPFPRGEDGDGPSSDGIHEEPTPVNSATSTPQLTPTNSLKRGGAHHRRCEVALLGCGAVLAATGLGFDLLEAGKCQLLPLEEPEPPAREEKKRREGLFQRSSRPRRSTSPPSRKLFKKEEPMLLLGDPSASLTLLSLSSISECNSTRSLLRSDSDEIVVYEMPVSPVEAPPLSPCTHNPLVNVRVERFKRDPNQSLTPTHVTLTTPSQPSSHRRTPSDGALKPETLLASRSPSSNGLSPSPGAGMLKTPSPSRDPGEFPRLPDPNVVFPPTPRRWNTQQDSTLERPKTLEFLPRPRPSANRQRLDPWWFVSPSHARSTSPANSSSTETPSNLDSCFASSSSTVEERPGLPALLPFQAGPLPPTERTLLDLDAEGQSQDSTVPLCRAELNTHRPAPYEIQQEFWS
T23 sequence (P08631 whole entry): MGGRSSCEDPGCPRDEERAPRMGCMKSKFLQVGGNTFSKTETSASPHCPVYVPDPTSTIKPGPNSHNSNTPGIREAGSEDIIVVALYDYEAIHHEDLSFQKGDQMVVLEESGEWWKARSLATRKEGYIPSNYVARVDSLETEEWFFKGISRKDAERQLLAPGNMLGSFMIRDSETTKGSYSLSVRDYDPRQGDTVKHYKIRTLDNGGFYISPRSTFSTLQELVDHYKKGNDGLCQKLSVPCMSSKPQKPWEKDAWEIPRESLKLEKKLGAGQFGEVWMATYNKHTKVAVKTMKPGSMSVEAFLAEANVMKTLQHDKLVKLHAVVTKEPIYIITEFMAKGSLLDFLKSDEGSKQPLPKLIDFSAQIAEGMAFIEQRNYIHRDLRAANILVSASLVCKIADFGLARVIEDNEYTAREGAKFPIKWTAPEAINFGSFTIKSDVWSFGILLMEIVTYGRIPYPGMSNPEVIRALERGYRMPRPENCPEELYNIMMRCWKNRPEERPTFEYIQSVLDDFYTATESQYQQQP
T10 sequence (P24723 whole entry): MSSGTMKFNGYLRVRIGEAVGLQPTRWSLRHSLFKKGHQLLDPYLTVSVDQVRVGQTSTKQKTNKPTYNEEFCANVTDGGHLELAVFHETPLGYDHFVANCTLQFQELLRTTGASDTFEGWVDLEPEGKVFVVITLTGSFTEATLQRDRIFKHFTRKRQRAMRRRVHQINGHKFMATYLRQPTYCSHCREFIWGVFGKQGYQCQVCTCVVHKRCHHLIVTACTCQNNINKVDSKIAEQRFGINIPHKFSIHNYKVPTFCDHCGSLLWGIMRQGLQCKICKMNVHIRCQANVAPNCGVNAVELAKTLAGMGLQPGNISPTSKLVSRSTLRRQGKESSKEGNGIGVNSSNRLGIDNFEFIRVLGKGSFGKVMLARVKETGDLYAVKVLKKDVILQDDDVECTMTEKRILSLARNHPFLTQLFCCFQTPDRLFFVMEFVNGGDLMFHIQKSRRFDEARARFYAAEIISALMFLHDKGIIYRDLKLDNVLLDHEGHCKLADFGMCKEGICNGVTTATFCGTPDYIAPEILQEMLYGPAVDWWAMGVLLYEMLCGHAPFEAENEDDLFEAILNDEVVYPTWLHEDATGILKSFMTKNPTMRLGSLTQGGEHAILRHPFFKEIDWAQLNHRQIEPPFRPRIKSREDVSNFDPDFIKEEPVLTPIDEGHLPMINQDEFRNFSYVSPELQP
T17 sequence (Q15349 whole entry): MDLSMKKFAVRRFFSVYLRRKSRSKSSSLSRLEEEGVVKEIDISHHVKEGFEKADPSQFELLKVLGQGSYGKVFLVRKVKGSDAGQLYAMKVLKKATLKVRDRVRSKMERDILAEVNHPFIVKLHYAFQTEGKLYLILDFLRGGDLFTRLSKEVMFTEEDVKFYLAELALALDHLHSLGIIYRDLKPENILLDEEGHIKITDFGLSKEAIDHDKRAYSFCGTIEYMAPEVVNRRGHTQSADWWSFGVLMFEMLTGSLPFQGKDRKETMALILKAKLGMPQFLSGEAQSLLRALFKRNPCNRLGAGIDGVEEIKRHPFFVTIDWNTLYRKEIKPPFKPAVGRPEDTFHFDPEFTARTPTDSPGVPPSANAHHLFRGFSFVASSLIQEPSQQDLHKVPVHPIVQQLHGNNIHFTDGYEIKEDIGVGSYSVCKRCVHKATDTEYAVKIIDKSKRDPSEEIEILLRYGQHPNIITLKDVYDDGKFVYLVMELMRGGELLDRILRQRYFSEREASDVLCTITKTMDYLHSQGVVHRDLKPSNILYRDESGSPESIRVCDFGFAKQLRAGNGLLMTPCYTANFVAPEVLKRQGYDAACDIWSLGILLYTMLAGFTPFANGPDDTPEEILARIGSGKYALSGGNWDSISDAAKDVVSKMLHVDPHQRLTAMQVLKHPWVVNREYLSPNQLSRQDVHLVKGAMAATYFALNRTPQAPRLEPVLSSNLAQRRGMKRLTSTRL
T21 sequence (P31749 whole entry): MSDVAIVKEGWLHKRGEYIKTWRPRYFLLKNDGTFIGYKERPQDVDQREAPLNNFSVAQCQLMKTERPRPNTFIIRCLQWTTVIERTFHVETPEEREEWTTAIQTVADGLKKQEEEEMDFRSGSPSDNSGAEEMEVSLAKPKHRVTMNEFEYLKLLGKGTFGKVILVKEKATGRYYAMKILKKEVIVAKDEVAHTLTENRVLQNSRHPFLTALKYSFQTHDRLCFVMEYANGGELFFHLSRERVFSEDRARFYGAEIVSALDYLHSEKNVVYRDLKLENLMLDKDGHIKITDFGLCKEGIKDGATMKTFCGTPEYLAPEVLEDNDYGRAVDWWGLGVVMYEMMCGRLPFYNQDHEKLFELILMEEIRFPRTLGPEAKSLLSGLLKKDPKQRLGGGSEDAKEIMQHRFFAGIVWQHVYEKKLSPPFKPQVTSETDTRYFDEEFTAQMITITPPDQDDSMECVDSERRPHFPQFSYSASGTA
T12 sequence (P23458 whole entry): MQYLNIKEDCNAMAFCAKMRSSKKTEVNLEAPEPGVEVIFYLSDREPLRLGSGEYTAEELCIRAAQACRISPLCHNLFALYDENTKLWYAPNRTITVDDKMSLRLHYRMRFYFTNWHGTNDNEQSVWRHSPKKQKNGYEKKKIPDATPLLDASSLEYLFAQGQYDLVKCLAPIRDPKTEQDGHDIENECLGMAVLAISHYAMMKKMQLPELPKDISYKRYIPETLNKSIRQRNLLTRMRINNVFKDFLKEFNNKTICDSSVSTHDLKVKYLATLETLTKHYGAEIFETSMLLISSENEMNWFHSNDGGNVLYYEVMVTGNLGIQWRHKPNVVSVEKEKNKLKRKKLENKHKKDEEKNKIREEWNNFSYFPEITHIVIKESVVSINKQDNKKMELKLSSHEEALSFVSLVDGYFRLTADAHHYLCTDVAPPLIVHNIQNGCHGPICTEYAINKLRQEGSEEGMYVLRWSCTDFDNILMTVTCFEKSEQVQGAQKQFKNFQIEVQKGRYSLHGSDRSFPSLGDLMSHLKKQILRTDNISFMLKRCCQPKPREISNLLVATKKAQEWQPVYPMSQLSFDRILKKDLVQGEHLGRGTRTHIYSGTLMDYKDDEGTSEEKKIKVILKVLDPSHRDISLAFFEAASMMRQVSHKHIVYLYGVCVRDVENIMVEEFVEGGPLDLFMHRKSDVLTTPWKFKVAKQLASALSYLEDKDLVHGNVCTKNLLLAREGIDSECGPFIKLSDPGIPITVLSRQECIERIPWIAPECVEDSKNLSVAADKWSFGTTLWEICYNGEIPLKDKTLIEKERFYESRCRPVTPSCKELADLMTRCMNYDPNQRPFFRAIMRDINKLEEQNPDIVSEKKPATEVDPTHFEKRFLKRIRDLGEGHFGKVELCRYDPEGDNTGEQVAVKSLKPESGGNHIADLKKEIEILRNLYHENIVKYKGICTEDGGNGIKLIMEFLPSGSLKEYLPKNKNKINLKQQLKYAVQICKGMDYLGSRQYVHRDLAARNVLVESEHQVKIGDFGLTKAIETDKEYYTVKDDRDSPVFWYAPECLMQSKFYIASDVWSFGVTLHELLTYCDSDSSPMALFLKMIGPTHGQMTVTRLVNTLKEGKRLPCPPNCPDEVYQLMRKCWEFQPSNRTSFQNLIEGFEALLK
T18 sequence (P11309 whole entry): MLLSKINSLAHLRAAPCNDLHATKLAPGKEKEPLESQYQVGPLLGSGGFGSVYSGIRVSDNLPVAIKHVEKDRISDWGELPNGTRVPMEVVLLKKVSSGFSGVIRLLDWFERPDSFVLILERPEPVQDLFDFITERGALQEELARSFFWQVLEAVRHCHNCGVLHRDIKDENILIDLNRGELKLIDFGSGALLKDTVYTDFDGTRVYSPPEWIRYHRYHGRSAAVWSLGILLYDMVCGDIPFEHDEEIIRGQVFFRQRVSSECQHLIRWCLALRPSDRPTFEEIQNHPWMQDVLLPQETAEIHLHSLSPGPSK

Compound	remaining activity at 0.5 µM (P38b/MAPK11) [%]	remaining activity at 0.5 µM (SRPK2) [%]	remaining activity at 0.5 µM (NEK9) [%]	remaining activity at 0.5 µM (MLK1/MAP3K9) [%]	remaining activity at 0.5 µM (ALK4/ACVR1B) [%]	remaining activity at 0.5 µM (CK2a) [%]	remaining activity at 0.5 µM (DLK/MAP3K12) [%]	remaining activity at 0.5 µM (EPHA6) [%]	remaining activity at 0.5 µM (PKCeta) [%]	remaining activity at 0.5 µM (IRAK1) [%]	remaining activity at 0.5 µM (JAK1) [%]	remaining activity at 0.5 µM (GRK5) [%]	remaining activity at 0.5 µM (DCAMKL1) [%]	remaining activity at 0.5 µM (LOK/STK10) [%]	remaining activity at 0.5 µM (STK38/NDR1) [%]	remaining activity at 0.5 µM (RSK3) [%]	remaining activity at 0.5 µM (PIM1) [%]	remaining activity at 0.5 µM (GRK4) [%]	remaining activity at 0.5 µM (P38a/MAPK14) [%]	remaining activity at 0.5 µM (AKT1) [%]	other results
COc1cc(Nc2ncnc(Nc3cc4c(cn3)NC(=O)C(C)(C)O4)n2)cc(OC)c1OC [MT-SYK-03]	103	104	55.7	21.5	125	94.3	83.7	> 54	109	74.6	63.4	103	97.6	75.7	112	91.6	101	99.7	110	101	IC50 (MLK1/MAP3K9; [1]): 7.8 nM; remaining activity at 0.5 µM (MRCKa/CDC42BPA; 500 nM, relative to DMSO): 102%; Residual enzymatic activity (EPHA6): 73.9%; remaining activity at 0.5 µM (CTK/MATK): 96.6%; remaining activity at 0.5 µM (HCK): 26.3%; IC50 (HCK; [1]): 53.7 nM; remaining activity at 0.5 µM (PKCzeta; 500 nM, relative to DMSO): 109%; remaining activity at 0.5 µM (TTBK1): 108%
COc1cc(Nc2ncc(F)c(Nc3ccc4c(n3)NC(=O)C(C)(C)O4)n2)cc(OC)c1OC [R406, reference compound]	101	104	2.5	6.3	133	50.8	70.6	24.9	96.6	13.5	0	96.4	84.2	37.4	70.4	52	99.2	96.8	99.9	99.4	remaining activity at 0.5 µM (MRCKa/CDC42BPA): 104%; remaining activity at 0.5 µM (CTK/MATK): 120%; remaining activity at 0.5 µM (HCK): 15.4%; remaining activity at 0.5 µM (PKCzeta): 105%; remaining activity at 0.5 µM (TTBK1): 98.5%
